{"source": "patent US20250345439A1", "about": "“CHONDROITIN SULFATE BIOGENIC POLYAMINE COMPLEX, PREPARATION METHOD THEREOF AND USE THEREOF” (priority 2022, published 2025)", "test_system": "rat rheumatoid arthritis model", "key": {"[1]": {"conditions": "venous blood, day 14 after administration"}}}
{"compound": "CN(Cc1cnc2nc(N)nc(N)c2n1)c1ccc(C(=O)N[C@@H](CCC(=O)O)C(=O)O)cc1", "note": "[MTX, methotrexate]", "values": [{"measurement": "degrees of swelling in the toes of rats", "setting": "CSX of Example 2 200 mg/kg gavage daily, MTX 0.2 mg/kg gavage every other day", "result": "showed the desired effect of inhibiting toe swelling"}, {"measurement": "CT of ankle joint parts of rats", "setting": "CSX of Example 2, MTX positive control", "result": "the degree of joint injury was more serious than that in the rats of the drug group (CSX)"}, {"measurement": "bone surface (BS) of the ankle joint", "setting": "CT", "result": "decreased significantly"}, {"measurement": "absolute leukocyte count vs model group", "setting": "[1]", "result": "no statistical difference"}, {"measurement": "absolute lymphocyte count vs model group", "setting": "[1]", "result": "significantly decreased"}, {"measurement": "absolute neutrophil count vs model group", "setting": "[1]", "result": "significantly decreased"}]}
